Measurements taken from PMC5564600 (Oncotarget, 2017).
Like-named read-outs stand apart in the source and are kept apart here.

Tests used:
Experiment in all cases: biochemical
Assay type in all cases: binding
[1] = target: T1, panel of 442 kinases (Homo sapiens, UniProt P51957); details: kinase NEK4; for remaining activity at 1 µM: read-out: % of control at 1 µM
T1 construct: purchased Ambit Biosciences (scanMAXX KINOMEscan)

[2] = target: T2, panel of 442 kinases (Homo sapiens, UniProt P36888, D835H); details: FLT3(D835H); for remaining activity at 1 µM: read-out: % of control at 1 µM
T2 construct: purchased Ambit Biosciences (scanMAXX KINOMEscan)
T2 sequence (P36888 27-993 D835H): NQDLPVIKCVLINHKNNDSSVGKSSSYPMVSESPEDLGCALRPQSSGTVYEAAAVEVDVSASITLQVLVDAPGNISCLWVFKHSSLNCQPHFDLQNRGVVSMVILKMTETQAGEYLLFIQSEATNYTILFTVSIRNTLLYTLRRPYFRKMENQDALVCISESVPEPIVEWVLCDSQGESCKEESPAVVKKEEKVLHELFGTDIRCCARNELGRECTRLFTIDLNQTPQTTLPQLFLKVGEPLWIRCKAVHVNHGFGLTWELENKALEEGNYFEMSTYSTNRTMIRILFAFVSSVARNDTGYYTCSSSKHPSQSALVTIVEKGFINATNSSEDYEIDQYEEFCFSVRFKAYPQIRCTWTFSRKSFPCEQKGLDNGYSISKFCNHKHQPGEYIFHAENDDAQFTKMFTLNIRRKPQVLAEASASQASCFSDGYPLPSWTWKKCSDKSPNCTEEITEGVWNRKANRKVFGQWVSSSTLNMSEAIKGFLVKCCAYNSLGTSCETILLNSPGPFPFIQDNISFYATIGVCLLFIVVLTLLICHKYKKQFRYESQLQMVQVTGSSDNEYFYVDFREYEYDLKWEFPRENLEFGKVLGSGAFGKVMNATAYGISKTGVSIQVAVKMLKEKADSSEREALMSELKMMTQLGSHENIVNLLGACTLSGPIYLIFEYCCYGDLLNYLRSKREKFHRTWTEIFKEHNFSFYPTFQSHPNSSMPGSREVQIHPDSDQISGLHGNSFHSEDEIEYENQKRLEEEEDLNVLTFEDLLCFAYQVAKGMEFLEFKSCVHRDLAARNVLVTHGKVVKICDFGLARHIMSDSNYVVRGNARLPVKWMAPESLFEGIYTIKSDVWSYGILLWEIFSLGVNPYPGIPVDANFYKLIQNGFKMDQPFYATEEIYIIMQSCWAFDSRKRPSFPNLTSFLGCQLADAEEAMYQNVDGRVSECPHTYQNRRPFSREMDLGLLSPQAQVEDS

[3] = target: T3, panel of 442 kinases (Homo sapiens, UniProt Q15418)
T3 construct: purchased Ambit Biosciences (scanMAXX KINOMEscan)
T3 sequence (Q15418 whole entry): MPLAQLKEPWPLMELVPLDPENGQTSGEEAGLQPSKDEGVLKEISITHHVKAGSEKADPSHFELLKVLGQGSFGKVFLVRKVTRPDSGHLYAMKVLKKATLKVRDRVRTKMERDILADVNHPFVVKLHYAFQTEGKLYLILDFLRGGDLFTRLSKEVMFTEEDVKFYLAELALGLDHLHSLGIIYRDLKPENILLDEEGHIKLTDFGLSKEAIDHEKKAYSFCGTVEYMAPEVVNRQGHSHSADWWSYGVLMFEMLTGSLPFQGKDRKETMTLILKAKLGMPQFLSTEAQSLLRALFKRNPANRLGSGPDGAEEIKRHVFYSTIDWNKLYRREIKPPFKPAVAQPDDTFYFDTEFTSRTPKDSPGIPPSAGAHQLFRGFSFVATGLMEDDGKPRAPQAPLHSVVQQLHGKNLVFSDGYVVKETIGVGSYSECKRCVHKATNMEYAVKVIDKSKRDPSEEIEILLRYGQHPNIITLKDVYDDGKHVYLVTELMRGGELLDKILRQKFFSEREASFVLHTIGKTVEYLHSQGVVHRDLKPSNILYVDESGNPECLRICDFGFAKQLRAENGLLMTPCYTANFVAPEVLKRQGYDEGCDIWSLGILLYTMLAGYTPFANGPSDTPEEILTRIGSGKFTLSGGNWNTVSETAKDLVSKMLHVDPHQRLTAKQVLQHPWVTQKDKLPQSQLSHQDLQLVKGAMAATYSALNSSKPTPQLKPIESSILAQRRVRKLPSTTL

[4] = target: T4, panel of 442 kinases (Homo sapiens, UniProt Q5VT25); details: kinase MRCKA; for remaining activity at 1 µM: read-out: % of control at 1 µM
T4 construct: purchased Ambit Biosciences (scanMAXX KINOMEscan)
T4 sequence (Q5VT25 whole entry): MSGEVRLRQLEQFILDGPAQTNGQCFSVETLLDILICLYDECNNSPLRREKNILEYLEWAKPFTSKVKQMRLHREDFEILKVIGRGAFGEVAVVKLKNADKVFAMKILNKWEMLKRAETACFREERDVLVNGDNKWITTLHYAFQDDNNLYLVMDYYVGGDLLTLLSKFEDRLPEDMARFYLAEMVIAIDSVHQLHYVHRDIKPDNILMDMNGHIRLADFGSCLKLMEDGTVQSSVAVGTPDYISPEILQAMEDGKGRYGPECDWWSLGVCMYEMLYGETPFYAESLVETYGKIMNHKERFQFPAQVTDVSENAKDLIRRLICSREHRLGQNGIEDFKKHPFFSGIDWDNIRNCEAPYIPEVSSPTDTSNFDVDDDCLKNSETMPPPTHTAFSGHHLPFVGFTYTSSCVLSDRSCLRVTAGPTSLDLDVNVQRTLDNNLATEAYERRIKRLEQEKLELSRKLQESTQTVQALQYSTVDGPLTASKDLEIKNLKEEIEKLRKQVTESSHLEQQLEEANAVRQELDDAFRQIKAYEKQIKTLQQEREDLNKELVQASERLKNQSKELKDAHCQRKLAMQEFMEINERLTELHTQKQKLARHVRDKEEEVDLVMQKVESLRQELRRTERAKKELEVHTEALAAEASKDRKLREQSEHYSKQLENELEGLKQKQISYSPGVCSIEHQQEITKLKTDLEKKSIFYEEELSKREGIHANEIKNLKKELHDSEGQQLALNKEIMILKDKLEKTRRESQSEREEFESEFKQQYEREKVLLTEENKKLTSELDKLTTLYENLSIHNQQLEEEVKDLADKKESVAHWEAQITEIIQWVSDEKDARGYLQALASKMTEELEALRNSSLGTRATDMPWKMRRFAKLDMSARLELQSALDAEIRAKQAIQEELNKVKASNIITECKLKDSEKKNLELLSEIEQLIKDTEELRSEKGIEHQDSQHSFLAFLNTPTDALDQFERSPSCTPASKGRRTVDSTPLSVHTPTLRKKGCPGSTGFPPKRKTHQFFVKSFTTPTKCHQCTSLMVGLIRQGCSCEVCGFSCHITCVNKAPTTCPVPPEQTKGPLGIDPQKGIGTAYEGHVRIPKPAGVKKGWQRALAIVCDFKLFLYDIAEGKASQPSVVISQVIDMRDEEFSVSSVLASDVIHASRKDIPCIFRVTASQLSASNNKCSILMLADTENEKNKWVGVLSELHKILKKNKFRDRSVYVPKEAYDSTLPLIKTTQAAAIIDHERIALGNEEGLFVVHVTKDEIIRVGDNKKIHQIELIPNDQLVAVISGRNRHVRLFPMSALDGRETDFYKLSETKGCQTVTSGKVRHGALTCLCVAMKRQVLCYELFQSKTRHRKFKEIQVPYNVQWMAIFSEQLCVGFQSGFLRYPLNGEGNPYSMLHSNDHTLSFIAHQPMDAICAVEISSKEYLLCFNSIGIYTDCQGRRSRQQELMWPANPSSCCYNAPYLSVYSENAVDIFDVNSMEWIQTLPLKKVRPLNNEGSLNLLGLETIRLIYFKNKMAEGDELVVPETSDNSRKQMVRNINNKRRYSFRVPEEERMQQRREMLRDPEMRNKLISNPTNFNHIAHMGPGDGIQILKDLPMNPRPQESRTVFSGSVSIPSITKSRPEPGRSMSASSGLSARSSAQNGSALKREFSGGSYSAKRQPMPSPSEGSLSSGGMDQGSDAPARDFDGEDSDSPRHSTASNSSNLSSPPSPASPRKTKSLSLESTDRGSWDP

[5] = target: T5, panel of 442 kinases (Homo sapiens, UniProt P27361); details: ERK1; for remaining activity at 1 µM: read-out: % of control at 1 µM
T5 construct: purchased Ambit Biosciences (scanMAXX KINOMEscan)

[6] = target: T6, panel of 442 kinases (Homo sapiens, UniProt P45984); details: kinase JNK2; for remaining activity at 1 µM: read-out: % of control at 1 µM
T6 construct: purchased Ambit Biosciences (scanMAXX KINOMEscan)
T6 sequence (P45984 whole entry): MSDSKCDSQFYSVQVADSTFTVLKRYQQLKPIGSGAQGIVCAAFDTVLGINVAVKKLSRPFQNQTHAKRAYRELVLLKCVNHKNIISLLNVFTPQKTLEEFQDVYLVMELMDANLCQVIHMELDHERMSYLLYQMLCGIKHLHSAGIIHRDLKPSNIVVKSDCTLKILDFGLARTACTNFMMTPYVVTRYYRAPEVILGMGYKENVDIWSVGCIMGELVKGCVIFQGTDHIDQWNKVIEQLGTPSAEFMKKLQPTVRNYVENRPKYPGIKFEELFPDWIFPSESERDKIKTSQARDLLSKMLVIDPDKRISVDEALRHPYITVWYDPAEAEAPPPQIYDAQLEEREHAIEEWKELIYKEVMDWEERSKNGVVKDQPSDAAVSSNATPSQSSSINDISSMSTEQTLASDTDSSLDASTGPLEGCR

[7] = target: T7, panel of 442 kinases (Homo sapiens, UniProt P08631); details: kinase HCK; for remaining activity at 1 µM: read-out: % of control at 1 µM
T7 construct: purchased Ambit Biosciences (scanMAXX KINOMEscan)
T7 sequence (P08631 whole entry): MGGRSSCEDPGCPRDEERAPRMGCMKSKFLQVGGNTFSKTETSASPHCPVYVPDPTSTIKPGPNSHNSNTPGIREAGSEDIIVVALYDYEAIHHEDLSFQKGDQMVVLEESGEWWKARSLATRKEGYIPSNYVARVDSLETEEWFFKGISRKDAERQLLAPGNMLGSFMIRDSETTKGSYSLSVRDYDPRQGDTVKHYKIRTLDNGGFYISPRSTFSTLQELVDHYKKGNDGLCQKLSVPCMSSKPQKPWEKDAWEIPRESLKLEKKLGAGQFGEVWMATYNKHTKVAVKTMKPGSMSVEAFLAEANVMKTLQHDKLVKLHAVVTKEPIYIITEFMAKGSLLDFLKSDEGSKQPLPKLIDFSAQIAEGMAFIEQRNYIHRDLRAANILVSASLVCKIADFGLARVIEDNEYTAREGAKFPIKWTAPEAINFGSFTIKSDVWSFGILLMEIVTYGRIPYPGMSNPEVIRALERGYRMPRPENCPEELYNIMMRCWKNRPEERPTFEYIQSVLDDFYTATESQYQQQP

[8] = target: T8, panel of 442 kinases (Homo sapiens, UniProt P31751); details: AKT2; for remaining activity at 1 µM: read-out: % of control at 1 µM
T8 construct: purchased Ambit Biosciences (scanMAXX KINOMEscan)
T8 sequence (P31751 whole entry): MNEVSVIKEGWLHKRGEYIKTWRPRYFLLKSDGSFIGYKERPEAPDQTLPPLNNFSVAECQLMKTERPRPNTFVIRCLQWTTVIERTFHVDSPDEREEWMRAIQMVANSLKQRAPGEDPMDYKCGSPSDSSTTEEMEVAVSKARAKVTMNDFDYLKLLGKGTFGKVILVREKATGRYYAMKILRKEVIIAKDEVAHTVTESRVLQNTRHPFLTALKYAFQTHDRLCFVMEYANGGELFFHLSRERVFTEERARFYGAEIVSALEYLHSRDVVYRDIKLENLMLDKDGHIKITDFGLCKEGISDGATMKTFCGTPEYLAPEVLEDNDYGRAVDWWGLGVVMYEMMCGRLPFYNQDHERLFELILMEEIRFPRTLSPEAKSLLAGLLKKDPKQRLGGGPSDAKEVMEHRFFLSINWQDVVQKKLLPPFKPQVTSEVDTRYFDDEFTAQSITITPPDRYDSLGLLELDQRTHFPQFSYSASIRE

[9] = target: T9, panel of 442 kinases (Homo sapiens, UniProt P22455); details: FGFR4; for remaining activity at 1 µM: read-out: % of control at 1 µM
T9 construct: purchased Ambit Biosciences (scanMAXX KINOMEscan)

[10] = target: T10, panel of 442 kinases (Homo sapiens, UniProt Q6XUX3); details: kinase RIPK5; for remaining activity at 1 µM: read-out: RIPK5 (% of control at 1 µM)
T10 construct: purchased Ambit Biosciences (scanMAXX KINOMEscan)
T10 sequence (Q6XUX3 1-929): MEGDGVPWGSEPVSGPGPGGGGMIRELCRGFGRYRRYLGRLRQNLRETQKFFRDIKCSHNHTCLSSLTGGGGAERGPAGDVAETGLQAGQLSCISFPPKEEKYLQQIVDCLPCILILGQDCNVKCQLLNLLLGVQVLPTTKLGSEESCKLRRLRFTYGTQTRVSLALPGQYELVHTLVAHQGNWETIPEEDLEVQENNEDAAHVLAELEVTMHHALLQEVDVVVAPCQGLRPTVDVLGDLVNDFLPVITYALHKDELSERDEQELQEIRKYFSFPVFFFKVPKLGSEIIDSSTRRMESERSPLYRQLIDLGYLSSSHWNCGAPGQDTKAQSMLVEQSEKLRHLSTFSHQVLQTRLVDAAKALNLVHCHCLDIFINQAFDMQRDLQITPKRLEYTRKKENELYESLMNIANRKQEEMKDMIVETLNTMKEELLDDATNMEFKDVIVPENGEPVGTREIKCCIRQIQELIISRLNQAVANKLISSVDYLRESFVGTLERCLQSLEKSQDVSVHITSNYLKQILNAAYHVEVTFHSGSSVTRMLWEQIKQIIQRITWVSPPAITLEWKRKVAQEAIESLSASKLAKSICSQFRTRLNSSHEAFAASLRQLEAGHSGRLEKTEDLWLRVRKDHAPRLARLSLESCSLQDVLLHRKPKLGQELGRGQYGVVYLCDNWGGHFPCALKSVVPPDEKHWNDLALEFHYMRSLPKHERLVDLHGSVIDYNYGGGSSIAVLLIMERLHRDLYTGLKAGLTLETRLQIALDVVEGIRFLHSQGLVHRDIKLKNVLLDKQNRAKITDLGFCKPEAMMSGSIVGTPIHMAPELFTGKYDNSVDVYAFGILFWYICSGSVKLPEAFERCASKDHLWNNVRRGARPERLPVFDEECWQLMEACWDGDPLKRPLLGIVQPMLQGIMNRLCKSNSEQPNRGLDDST

[11] = target: T11, panel of 442 kinases (Homo sapiens, UniProt O75582)
T11 construct: purchased Ambit Biosciences (scanMAXX KINOMEscan)

[12] = 10 µM, read-out: % of control at 10 µM
[13] = kinase RSK1(Kin.Dom.1-N-terminal), read-out: RSK1(Kin.Dom.1-N-terminal) (% of control at 1 µM)
[14] = kinase RSK1(Kin.Dom.2-C-terminal), read-out: RSK1(Kin.Dom.2-C-terminal) (% of control at 1 µM)
[15] = kinase RPS6KA5(Kin.Dom.1-N-terminal), read-out: RPS6KA5(Kin.Dom.1-N-terminal) (% of control at 1 µM)
[16] = kinase RPS6KA5(Kin.Dom.2-C-terminal), read-out: RPS6KA5(Kin.Dom.2-C-terminal) (% of control at 1 µM)

T1 sequence (P51957 whole entry): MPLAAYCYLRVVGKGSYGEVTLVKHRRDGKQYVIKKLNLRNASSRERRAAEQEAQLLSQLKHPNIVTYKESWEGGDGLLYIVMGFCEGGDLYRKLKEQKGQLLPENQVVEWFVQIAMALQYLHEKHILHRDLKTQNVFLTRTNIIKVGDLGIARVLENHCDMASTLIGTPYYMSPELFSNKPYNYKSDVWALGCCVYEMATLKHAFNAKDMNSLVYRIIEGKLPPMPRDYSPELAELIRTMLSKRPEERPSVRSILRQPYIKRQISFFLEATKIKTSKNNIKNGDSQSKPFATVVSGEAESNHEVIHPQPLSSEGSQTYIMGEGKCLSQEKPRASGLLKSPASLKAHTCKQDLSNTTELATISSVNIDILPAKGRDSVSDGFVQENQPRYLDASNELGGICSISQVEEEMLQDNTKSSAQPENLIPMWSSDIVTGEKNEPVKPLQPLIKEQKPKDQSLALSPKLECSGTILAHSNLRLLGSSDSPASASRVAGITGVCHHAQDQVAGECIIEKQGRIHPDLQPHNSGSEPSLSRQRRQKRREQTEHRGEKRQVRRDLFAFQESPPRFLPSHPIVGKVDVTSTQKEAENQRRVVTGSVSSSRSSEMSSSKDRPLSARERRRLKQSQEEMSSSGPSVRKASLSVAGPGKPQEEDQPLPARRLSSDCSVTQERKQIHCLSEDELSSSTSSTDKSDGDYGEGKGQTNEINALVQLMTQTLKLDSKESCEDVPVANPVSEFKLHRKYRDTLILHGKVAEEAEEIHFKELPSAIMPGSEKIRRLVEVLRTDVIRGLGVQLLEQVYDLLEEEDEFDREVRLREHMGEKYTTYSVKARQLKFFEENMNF

| SMILES | remaining activity at 1 µM [1] [%] | remaining activity at 1 µM [2] [%] | remaining activity at 1 µM [3, 13] [%] | remaining activity at 1 µM [3, 14] [%] | remaining activity at 1 µM [4] [%] | remaining activity at 1 µM [5] [%] | remaining activity at 1 µM [6] [%] | remaining activity at 1 µM [7] [%] | remaining activity at 1 µM [8] [%] | remaining activity at 1 µM [9] [%] | remaining activity at 1 µM [10] [%] | remaining activity at 1 µM [11, 15] [%] | remaining activity at 1 µM [11, 16] [%] | also measured |
| --- | --- | --- | --- | --- | --- | --- | --- | --- | --- | --- | --- | --- | --- | --- |
| Nc1cc(C(F)(F)F)c(-c2cc(N3CCOCC3)nc(N3CCOCC3)n2)cn1 [Buparlisib] | 77 | 89 | 100 | 97 | 80 | 92 | 100 | 100 | 100 | 100 | 100 | 100 | 74 | remaining activity at 10 µM [1, 12]: 99%; remaining activity at 10 µM [2, 12]: 76%; remaining activity at 10 µM ([3]; kinase RSK1(Kin.Dom.1-N-terminal), read-out: RSK1(Kin.Dom.1-N-terminal) (% of control at 10 µM)): 100%; remaining activity at 10 µM ([3]; kinase RSK1(Kin.Dom.2-C-terminal), read-out: RSK1(Kin.Dom.2-C-terminal) (% of control at 10 µM)): 98%; remaining activity at 10 µM [4, 12]: 100%; remaining activity at 10 µM [5, 12]: 100%; remaining activity at 10 µM [6, 12]: 100%; remaining activity at 10 µM [7, 12]: 100%; remaining activity at 10 µM [8, 12]: 100%; remaining activity at 10 µM [9, 12]: 100%; remaining activity at 10 µM ([10]; 10 µM, read-out: RIPK5 (% of control at 10 µM)): 89%; remaining activity at 10 µM ([11]; kinase RPS6KA5(Kin.Dom.1-N-terminal), read-out: RPS6KA5(Kin.Dom.1-N-terminal) (% of control at 10 µM)): 100%; remaining activity at 10 µM ([11]; kinase RPS6KA5(Kin.Dom.2-C-terminal), read-out: RPS6KA5(Kin.Dom.2-C-terminal) (% of control at 10 µM)): 96% |
| Cn1c(=O)n(-c2ccc(C(C)(C)C#N)cc2)c2c3cc(-c4cnc5ccccc5c4)ccc3ncc21 [Dactolisib, 2-methyl-2-[4-(3-methyl-2-oxo-8-quinolin-3-yl-2,3-dihydroimidazo[4,5-c]quinolin-1-yl)-phenyl] propionitrile] | 88 | 26 | 77 | 61 | 83 | 97 | 100 | 94 | 78 | 89 | 80 | 64 | 100 |  |
| COc1ncc(-c2ccc3nccc(-c4ccnnc4)c3c2)cc1NS(=O)(=O)c1ccc(F)cc1F [Omipalisib] | 100 | 100 | 95 | 95 | 97 | 100 | 100 | 100 | 69 | 100 | 100 | 100 | 100 |  |
| FC(F)c1nc2ccccc2n1-c1nc(N2CCOCC2)nc(N2CCOCC2)n1 [ZSTK474, 2-(difluoromethyl)-1-[4,6-di(4-morpholinyl)-1,3,5-triazin-2-yl]-1H-benzimidazole] | 100 | 100 | 100 | 83 | 83 | 100 | 100 | 100 | 80 | 100 | 92 | 81 | 100 |  |
